SMILES strings stand for the structures.

Among the data in patent publication US9499534B2, “Thiazole-substituted aminopyrimidines as spleen tyrosine kinase inhibitors” (priority 2013, dated 2016) are IC50 values, retold here.

This assay deals with recombinant human GST-SYK (Homo sapiens (Human), UniProt P43405). As to the kind of experiment: Homogeneous Time-Resolved Fluorescence (HTRF) Assay for the Recombinant Human Syk Enzyme. The format is biochemical. The following applies: GST-SYK 5 pM, ATP 25 μM, biotinylated substrate peptide 250 nM, HTRF signal. Here is the method:
Homogeneous Time-Resolved Fluorescence (HTRF) Assay for the Recombinant Human Syk Enzyme
A recombinant GST-hSYK fusion protein was used to measure potency of compounds to inhibit human Syk activity. The recombinant human GST-SYK (Carna Biosciences #08-176) (5 pM final concentration) was incubated with various concentrations of the inhibitor diluted in DMSO (0.1% final concentration) for 10 minutes at room temperature in 15 mM Tris-HCl (pH 7.5), 0.01% tween 20, 2 mM DTT in 384 well plate format. To initiate the reaction the biotinylated substrate peptide (250 nM final concentration) that contains the phosphorylation site for Syk was added with magnesium (5 mM final concentration) and ATP (25 μM final concentration). Final volume of the reaction was 10 μL. Phosphorylation of the peptide was allowed to proceed for 45′ at room temperature. To quench the reaction and detect the phosphorylated product, 2 nM of a Europium-anti-phosphotyrosine antibody (Perkin Elmer #AD0161) and 70 nM SA-APC (Perkin-Elmer #CR130-100) were added together in 15 mM Tris pH 7.5, 40 mM EDTA, 0.01% tween 20. Final volume of the quenching solution was 10 μL.
The resulting HTRF signal was measured after 30 minutes on an EnVision (Perkin-Elmer) reader using a time-resolved fluorescence protocol. Table A below lists activities as IC50 values (nM) for representative compounds of the invention.
Background: In TR-FRET formats the signal depends on donor and acceptor labels being close together.

As to `CC1(C)C[C@](O)(c2ncc(-c3cc(Nc4nccc(C(F)(F)F)n4)cc(-c4cncc(F)c4)c3)s2)CC[C@H]1C(=O)O` (single isomer, unassigned) [Example 2.15, (1R,4S or 1S,4R)-4-{5-[3-(5-fluoropyridin-3-yl)-5-{[4-(trifluoromethyl)pyrimidin-2-yl]amino}phenyl]-1,3-thiazol-2-yl}-4-hydroxy-2,2-dimethylcyclohexanecarboxylic acid], the IC50 (in general, the concentration that inhibits the measured activity by half) came out at 3.22 nM.

Turning to `Cc1cc(-c2cc(Nc3nccc(C(F)(F)F)n3)cc(-c3cnc([C@]4(O)CC[C@@H](C(=O)O)C(C)(C)C4)s3)c2)ccc1F` (single isomer, unassigned) [Example 2.16, (1R,4S or 1S,4R)-4-[5-(4′-fluoro-3′-methyl-5-{[4-(trifluoromethyl)pyrimidin-2-yl]amino}biphenyl-3-yl)-1,3-thiazol-2-yl]-4-hydroxy-2,2-dimethylcyclohexanecarboxylic acid], the IC50 was 153 nM.

Regarding `C[S+]([O-])c1ccccc1-c1cc(Nc2nccc(C(F)(F)F)n2)cc(-c2cnc([C@]3(O)CC[C@@H](C(=O)O)C(C)(C)C3)s2)c1` (single isomer, unassigned) [Example 2.17, (1R,4S or 1S,4R)-4-hydroxy-2,2-dimethyl-4-{5-[2′-(methylsulfinyl)-5-{[4-(trifluoromethyl)pyrimidin-2-yl]amino}biphenyl-3-yl]-1,3-thiazol-2-yl}cyclohexanecarboxylic acid], the IC50 came out at 15.3 nM.

As to `CC1(C)C[C@](O)(c2ncc(-c3cc(Nc4nccc(C(F)(F)F)n4)cc(-c4ccccc4Cl)c3)s2)CC[C@H]1C(=O)O` (single isomer, unassigned) [Example 2.18, (1R,4S or 1S,4R)-4-[5-(2′-chloro-5-{[4-(trifluoromethyl)pyrimidin-2-yl]amino}biphenyl-3-yl)-1,3-thiazol-2-yl]-4-hydroxy-2,2-dimethylcyclohexanecarboxylic acid], the IC50 was determined as 37.1 nM.

For the compound `CC1(C)C[C@](O)(c2ncc(-c3cc(Nc4nccc(C(F)(F)F)n4)cc(-c4ccc(N)nc4)c3)s2)CC[C@H]1C(=O)O` (single isomer, unassigned) [Example 2.19, (1R,4S or 1S,4R)-4-{5-[3-(6-aminopyridin-3-yl)-5-{[4-(trifluoromethyl)pyrimidin-2-yl]amino}phenyl]-1,3-thiazol-2-yl}-4-hydroxy-2,2-dimethylcyclohexanecarboxylic acid], the IC50 worked out at 1.29 nM.

For the compound `Cc1ccccc1-c1cc(Nc2nccc(C(F)(F)F)n2)cc(-c2cnc([C@]3(O)CC[C@@H](C(=O)O)C(C)(C)C3)s2)c1` (single isomer, unassigned) [Example 2.20, (1R,4S or 1S,4R)-4-hydroxy-2,2-dimethyl-4-[5-(2′-methyl-5-{[4-(trifluoromethyl)pyrimidin-2-yl]amino}biphenyl-3-yl)-1,3-thiazol-2-yl]cyclohexanecarboxylic acid], the IC50 was 70.4 nM.

On to `CC1(C)C[C@](O)(c2ncc(-c3cc(Nc4nccc(C(F)(F)F)n4)cc(C4=CCCCC4)c3)s2)CC[C@H]1C(=O)O` (single isomer, unassigned) [Example 2.21, (1R,4S or 1S,4R)-4-[5-(3-cyclohex-1-en-1-yl-5-{[4-(trifluoromethyl)pyrimidin-2-yl]amino}phenyl)-1,3-thiazol-2-yl]-4-hydroxy-2,2-dimethylcyclohexanecarboxylic acid], for which the IC50 was 17.6 nM.

For the compound `Cc1ccc(F)c(-c2cc(Nc3nccc(C(F)(F)F)n3)cc(-c3cnc([C@]4(O)CC[C@@H](C(=O)O)C(C)(C)C4)s3)c2)c1` (single isomer, unassigned) [Example 2.22, (1R,4S or 1S,4R)-4-[5-(2′-fluoro-5′-methyl-5{[4-(trifluoromethyl)pyrimidin-2 yl]amino}biphenyl-3-yl)-1,3-thiazol-2-yl]-4-hydroxy-2,2-dimethylcyclohexanecarboxylic acid], the IC50 came to 46 nM.

In the case of `Cc1ccsc1-c1cc(Nc2nccc(C(F)(F)F)n2)cc(-c2cnc([C@]3(O)CC[C@@H](C(=O)O)C(C)(C)C3)s2)c1` (single isomer, unassigned) [Example 2.23, (1R,4S or 1S,4R)-4-hydroxy-2,2-dimethyl-4-{5-[3-(3-methylthiophen-2-yl)-5-{[4-(trifluoromethyl)pyrimidin-2-yl]amino}phenyl]-1,3-thiazol-2-yl}cyclohexanecarboxylic acid], the concentration for half-maximal inhibition (IC50) is 10.1 nM.

For `Cc1cscc1-c1cc(Nc2nccc(C(F)(F)F)n2)cc(-c2cnc([C@]3(O)CC[C@@H](C(=O)O)C(C)(C)C3)s2)c1` (single isomer, unassigned) [Example 2.24, (1R,4S or 1S,4R)-4-hydroxy-2,2-dimethyl-4-{5-[3-(4-methylthiophen-3-yl)-5-{[4-(trifluoromethyl)pyrimidin-2-yl]amino}phenyl]-1,3-thiazol-2-yl}cyclohexanecarboxylic acid], the IC50 was 24.6 nM.

Take `CC1(C)C[C@](O)(c2ncc(-c3cc(Nc4nccc(C(F)(F)F)n4)cc(-c4ccccc4F)c3)s2)CC[C@H]1C(=O)O` (single isomer, unassigned) [Example 2.25, (1R,4S or 1S,4R)-4-[5-(2′-fluoro-5-{[4-(trifluoromethyl)pyrimidin-2-yl]amino}biphenyl-3-yl)-1,3-thiazol-2-yl]-4-hydroxy-2,2-dimethylcyclohexanecarboxylic acid]: the IC50 is 35.2 nM.

Consider `CC/C=C\c1cc(Nc2nccc(C(F)(F)F)n2)cc(-c2cnc([C@]3(O)CC[C@@H](C(=O)O)C(C)(C)C3)s2)c1` (single isomer, unassigned) [Example 2.26, (1R,4S or 1S,4R)-4-[5-(3-[(1Z)-but-1-en-1-yl]-5-{[4-(trifluoromethyl)pyrimidin-2-yl]amino}phenyl)-1,3-thiazol-2-yl]-4-hydroxy-2,2-dimethylcyclohexanecarboxylic acid], for which the IC50 was 2.68 nM.

For the compound `CC1(C)C[C@](O)(c2ncc(-c3cc(/C=C\C4CC4)cc(Nc4nccc(C(F)(F)F)n4)c3)s2)CC[C@H]1C(=O)O` (single isomer, unassigned) [Example 2.27, (1R,4S or 1S,4R)-4-[5-(3-[(Z)-2-cyclopropylethenyl]-5-{[4-(trifluoromethyl)pyrimidin-2-yl]amino}phenyl)-1,3-thiazol-2-yl]-4-hydroxy-2,2-dimethylcyclohexanecarboxylic acid], the half-inhibitory concentration (IC50) was found to be 4.06 nM.

With `C/C=C(\C)c1cc(Nc2nccc(C(F)(F)F)n2)cc(-c2cnc([C@]3(O)CC[C@@H](C(=O)O)C(C)(C)C3)s2)c1` (single isomer, unassigned) [Example 2.28, (1R,4S or 1S,4R)-4-hydroxy-2,2-dimethyl-4-[5-(3-[(1E)-1-methylprop-1-en-1-yl]-5-{[4-(trifluoromethyl)pyrimidin-2-yl]amino}phenyl)-1,3-thiazol-2-yl]cyclohexanecarboxylic acid], the IC50 came out at 2.75 nM.

Take `CC(C)(C)/C=C\c1cc(Nc2nccc(C(F)(F)F)n2)cc(-c2cnc([C@]3(O)CC[C@@H](C(=O)O)C(C)(C)C3)s2)c1` (single isomer, unassigned) [Example 2.29, (1R,4S or 1S,4R)-4-[5-(3-[(1Z)-3,3-dimethylbut-1-en-1-yl]-5-{[4-(trifluoromethyl)pyrimidin-2-yl]amino}phenyl)-1,3-thiazol-2-yl]-4-hydroxy-2,2-dimethylcyclohexanecarboxylic acid]: the IC50 came out at 16.8 nM.

As to `C=C(C)c1cc(Nc2nccc(C(F)(F)F)n2)cc(-c2cnc([C@]3(O)CC[C@@H](C(=O)O)C(C)(C)C3)s2)c1` (single isomer, unassigned) [Example 2.30, (1R,4S or 1S,4R)-4-hydroxy-2,2-dimethyl-4-{5-[3-(1-methylethenyl)-5-{[4-(trifluoromethyl)pyrimidin-2-yl]amino}phenyl]-1,3-thiazol-2-yl}cyclohexanecarboxylic acid], the IC50 was 3.94 nM.

With `CC1(C)C[C@@](O)(c2ncc(-c3cc(Nc4nccc(C(F)(F)F)n4)cc(-c4nccs4)c3)s2)CC[C@@H]1C(=O)O` (single isomer, unassigned) [Example 3.1, (1R,4S or 1S,4R)-4-Hydroxy-2,2-dimethyl-4-(5-(3-(thiazol-2-yl)-5-((4-(trifluoromethyl)pyrimidin-2-yl)amino)phenyl)thiazol-2-yl)cyclohexanecarboxylic acid], the IC50 was 2.5 nM.

Regarding `CC1(C)C[C@](O)(c2ncc(-c3cc(Nc4nccc(C(F)(F)F)n4)cc(-c4cccs4)c3)s2)CC[C@H]1C(=O)O` (single isomer, unassigned) [Example 3.2, (1R,4S or 1S,4R)-4-hydroxy-2,2-dimethyl-4-[5-(3-thiophen-2-yl-5-{[4-(trifluoromethyl)pyrimidin-2-yl]amino}phenyl)-1,3-thiazol-2-yl]cyclohexanecarboxylic acid], the IC50 is 12.4 nM.

Consider `CC1(C)C[C@](O)(c2ncc(-c3cc(Nc4nccc(C(F)(F)F)n4)cc(-c4ccc(C#N)c(F)c4)c3)s2)CC[C@H]1C(=O)O` (single isomer, unassigned) [Example 3.3, (1R,4S or 1S,4R)-4-[5-(4′-cyano-3′-fluoro-5-{[4-(trifluoromethyl)pyrimidin-2-yl]amino}biphenyl-3-yl)-1,3-thiazol-2-yl]-4-hydroxy-2,2-dimethylcyclohexanecarboxylic acid], for which the IC50 came to 34.8 nM.
